Results taken from ChEMBL document CHEMBL1765084, “Pyrimidine-2,4,6-trione derivatives and their inhibition of mutant SOD1-dependent protein aggregation. Toward a treatment for amyotrophic lateral sclerosis” (J Med Chem, 2011).

System: PC-12
Experiment: Cytoprotection against SOD1 G93A mutant induced cytotoxicity in rat PC12 cells assessed as reduction of protein aggregates by fluorescent assay
Assay type: functional, cell-based

| Structure (SMILES) | EC50 |
| --- | --- |
| O=C1CC(=O)N(CCc2ccc(Cl)cc2Cl)C(=O)N1CCc1ccc(Cl)cc1Cl | 1870 nM |
| CC(C)(C)CCN1C(=O)CC(=O)N(CCC(C)(C)C)C1=O | 2030 nM |
| Cc1ccccc1C=C1C(=O)N(CCc2ccccc2)C(=O)N(CCc2ccccc2)C1=O | 2230 nM |
| O=C1CC(=O)N(CCc2ccccc2)C(=O)N1CCCc1ccccc1 | 1880 nM |
| O=C1C(=O)N(C2CCCCC2)C(=O)N1C1CCCCC1 | > 32000 nM |
| O=C1CC(=O)N(CCc2cccs2)C(=O)N1CCc1ccc(F)cc1 | 2160 nM |
| O=C1C(=O)N(CCc2ccccc2)C(=O)N1CCc1ccccc1 | > 32000 nM |
| O=C1CC(=O)N(CCc2cccs2)C(=O)N1CCc1cccs1 | 2160 nM |
| O=C1C(=Cc2ccc(OCc3ccccc3)cc2)C(=O)N(CCc2ccccc2)C(=O)N1CCc1ccccc1 | 2840 nM |
| O=C1CC(=O)N(CCc2ccc(F)cc2)C(=O)N1CCOc1ccccc1 | 1320 nM |
| O=C1CC(=O)N(CCN2CCOCC2)C(=O)N1CCc1ccc(F)cc1 | > 32000 nM |
| O=C1CC(=O)N(C2CCCCC2)C(=O)N1 | > 32000 nM |
| O=C1CCC(=O)N(CCc2ccccc2)C(=O)N1CCc1ccccc1 | > 32000 nM |
| O=C1CC(=O)N(CCc2cccc(Cl)c2)C(=O)N1CCc1cccc(Cl)c1 | 2970 nM |
| O=C1CC(=O)N(CCOc2ccccc2)C(=O)N1CCOc1ccccc1 | 3260 nM |
| COc1ccc(CCN2C(=O)CC(=O)N(CCc3ccccc3)C2=O)cc1 | 2940 nM |
| O=C1CC(=O)N(CCc2ccc(F)cc2)C(=O)N1CCCCc1ccccc1 | 3550 nM |
| O=C1C(=CC2CCCCC2)C(=O)N(CCc2ccccc2)C(=O)N1CCc1ccccc1 | > 32000 nM |
| O=C1CC(=O)N(CCc2ccc(Cl)cc2)C(=O)N1CCc1ccc(Cl)cc1 | 3260 nM |
| O=C1CC(=O)N(CCc2ccccc2)C(=O)N1CCC1=CCCCC1 | 1740 nM |
| COc1ccc(C=C2C(=O)N(C3CCCCC3)C(=O)N(C3CCCCC3)C2=O)c(OC)c1 | 2580 nM |
| O=C1CC(=O)N(CCc2ccccc2F)C(=O)N1CCc1ccccc1F | 3290 nM |
| O=C1CC(=O)N(C2CCCCC2)C(=O)N1CCc1ccccc1 | 1670 nM |
| O=C1CC(=O)N(CCc2cccs2)C(=O)N1CCc1ccccc1 | 3390 nM |
| CCOCCN1C(=O)CC(=O)N(CCOCC)C1=O | 7750 nM |
